The values below come from patent US10844057B2, “Process for preparing JAK inhibitors and intermediates thereof” (priority 2018, dated 2020).

In assay [1] the test system is TSLP-evoked TARC release in human peripheral blood mononuclear cells. Description: Inhibition of TSLP-evoked TARC release in human peripheral blood mononuclear cells. The note with it: read-out: pIC50 ± st. dev., inhibition of TSLP-evoked TARC release (converted). It is filed as cell-based. The source says: Assay 4: Inhibition of TSLP-Evoked TARC Release in Human Peripheral Blood Mononuclear Cells
Thymic stromal lymphopoietin (TSLP) and thymus and activation-regulated chemokine (TARC) are overexpressed in asthmatic airways, and correlate with disease severity. In the lungs, TSLP may be released by bronchial epithelial cells in response to allergens and viral infections. TSLP signals through an IL-7Rα/TSLPR heterodimer found in a broad range of tissues and cell types, including epithelial cells, endothelial cells, neutrophils, macrophages, and mast cells. The binding of TSLP to its receptor induces a conformational change that activates JAK1 and JAK2 to phosphorylate various transcription factors, including STAT3 and STAT5. In immune cells, this triggers a cascade of intracellular events that result in cell proliferation, anti-apoptosis, dendritic cell migration, and production of Th2 cytokines and chemokines. In peripheral blood mononuclear cells (PBMC), TSLP has a proinflammatory effect by activating myeloid dendritic cells to attract and stimulate T cells, a process mediated by the chemoattractant TARC.
The potencies of the test compounds were measured for inhibition of TARC release.
PBMC aliquots (previously isolated from whole blood and frozen in aliquots at −80° C.) from 3 to 5 donors were thawed at 37° C. and added dropwise to 40 mL pre-warmed, sterile-filtered, complete RPMI media in 50 mL Falcon tubes. Cells were pelleted and resuspended in complete media at 2.24×10^6 cells/mL. […] Cells were allowed to rest for 1 hour at 37° C. with 5% CO2.
Compounds were received as 10 mM stock solutions in DMSO. 3.7-fold serial dilutions were performed to generate 9 concentrations of test compound in DMSO at 300× the final assay test concentration. […] 95 μL of 0.2% DMSO in complete media was added to the untreated control wells. Cells were pre-treated with compound for 1 hour at 37° C. with 5% CO2 prior to stimulation.
Immediately prior to use, an aliquot was thawed and prepared at 20× the final assay concentration in complete media. 10 μL of 20×TSLP was added to each well of PBMC, for a final assay concentration of 10 ng/mL. 10 μL of complete media was added to the unstimulated control wells. Cells were stimulated in the presence of compound for 48 hours at 37° C. with 5% CO2.
Following stimulation, the cell culture supernatants were harvested and TARC levels were detected by enzyme-linked immunosorbent assay (ELISA), using Human CCL17/TARC Quantikine ELISA Kit (R&D Systems # DDN00) according to the manufacturer's instructions.
For dose response analysis, the log [test compound (M)] was plotted versus the percent response values for each donor, and IC50 values were determined using a nonlinear regression analysis with GraphPad Prism Software using the 4-parameter sigmoidal dose-response algorithm with variable slope. Data are expressed as mean pIC50 (negative decadic logarithm IC50) values calculated from pIC50 values of individual donors and rounded to one decimal place.

The test system of assay [2] is IL-2 stimulated STAT5 phosphorylation in Tall-1 human T cell line. As to the kind of experiment: Inhibition of IL-2 stimulated pSTAT5 in Tall-1 T cells. Type of assay: cell-based. The procedure:
Assay 2: Inhibition of IL-2 Stimulated pSTAT5 in Tall-1 T Cells
The potency of test compounds for inhibition of interleukin-2 (IL-2) stimulated STAT5 phosphorylation was measured in the Tall-1 human T cell line (DSMZ) using AlphaLisa.
Phosphorylated STAT5 was measured via the AlphaLISA SureFire Ultra pSTAT5 (Tyr694/699) kit (PerkinElmer).
Compounds were serially diluted in DMSO and dispensed acoustically to empty wells. Assay media (phenol red-free DMEM (Life Technologies) supplemented with 10% FBS (ATCC)) was dispensed (4 μL/well) and plates shaken at 900 rpm for 10 mins. Cells were seeded at 45,000 cells/well in assay media (4 μL/well), and incubated at 37° C., 5% CO2 for 1 hour, followed by the addition of IL-2 (R&D Systems; final concentration 300 ng/mL) in pre-warmed assay media (4 μL) for 30 minutes. […] The lysate was shaken at 900 rpm for 10 minutes at room temperature (RT). Phosphorylated STAT5 was measured via the pSTAT5 AlphaLisa kit (PerkinElmer). Freshly prepared acceptor bead mixture was dispensed onto lysate (5 μL) under green filtered <100 lux light. Plates were shaken at 900 rpm for 2 mins, briefly spun down, and incubated for 2 hrs at RT in the dark. Donor beads were dispensed (5 μL) under green filtered <100 lux light. Plates were shaken at 900 rpm for 2 minutes, briefly spun down, and incubated overnight at RT in the dark. Luminescence was measured with excitation at 689 nm and emission at 570 nm using an EnVision plate reader (PerkinElmer) under green filtered <100 lux light.
To determine the inhibitory potency of test compounds in response to IL-2, the average emission intensity of beads bound to pSTAT5 was measured in a human T cell line. IC50 values were determined from analysis of the inhibition curves of signal intensity versus compound concentration. Data are expressed as pIC50 (negative decadic logarithm IC50) values (mean±standard deviation).

The next assay has as its target JAK2 (Homo sapiens (Human), UniProt O60674). Description: Biochemical JAK kinase assay (LanthaScreen), JAK2. The procedure: (§1) Assay 1: Biochemical JAK Kinase Assays
(§2) A panel of four LanthaScreen JAK biochemical assays (JAK1, 2, 3 and Tyk2) were carried in a common kinase reaction buffer (50 mM HEPES, pH 7.5, 0.01% Brij-35, 10 mM MgCl2, and 1 mM EGTA). Recombinant GST-tagged JAK enzymes and a GFP-tagged STAT1 peptide substrate were obtained from Life Technologies.
(§3) Serially diluted compounds were pre-incubated with each of the four JAK enzymes and the substrate in white 384-well microplates (Corning) at ambient temperature for 1 h. ATP was subsequently added to initiate the kinase reactions in 10 μL total volume, with 1% DMSO. […] Kinase reactions were allowed to proceed for 1 hour at ambient temperature before a 10 μL preparation of EDTA (10 mM final concentration) and Tb-anti-pSTAT1 (pTyr701) antibody (Life Technologies, 2 nM final concentration) in TR-FRET dilution buffer (Life Technologies) was added. The plates were allowed to incubate at ambient temperature for 1 h before being read on the EnVision reader (Perkin Elmer). Emission ratio signals (520 nm/495 nm) were recorded and utilized to calculate the percent inhibition values based on DMSO and background controls.
(§4) For dose-response analysis, percent inhibition data were plotted vs. compound concentrations, and IC50 values were determined from a 4-parameter robust fit model with the Prism software (GraphPad Software). Results were expressed as pIC50 (negative logarithm of IC50) and subsequently converted to pKi (negative logarithm of dissociation constant, Ki) using the Cheng-Prusoff equation.

The target in the next assay is Tyk2 (Homo sapiens (Human), UniProt P29597). As to the kind of experiment: Biochemical JAK kinase assay (LanthaScreen), Tyk2. The note with it: converted from pIC50 using Cheng-Prusoff; ATP 10 μM. The procedure: as §1, §2, §3, §4
Setting [3] is: TALL-1, read-out: Tall-1 pIC50 (converted).

Read-outs that look alike come from different tables or passages of the source.

JAK2, sequence (O60674 whole entry): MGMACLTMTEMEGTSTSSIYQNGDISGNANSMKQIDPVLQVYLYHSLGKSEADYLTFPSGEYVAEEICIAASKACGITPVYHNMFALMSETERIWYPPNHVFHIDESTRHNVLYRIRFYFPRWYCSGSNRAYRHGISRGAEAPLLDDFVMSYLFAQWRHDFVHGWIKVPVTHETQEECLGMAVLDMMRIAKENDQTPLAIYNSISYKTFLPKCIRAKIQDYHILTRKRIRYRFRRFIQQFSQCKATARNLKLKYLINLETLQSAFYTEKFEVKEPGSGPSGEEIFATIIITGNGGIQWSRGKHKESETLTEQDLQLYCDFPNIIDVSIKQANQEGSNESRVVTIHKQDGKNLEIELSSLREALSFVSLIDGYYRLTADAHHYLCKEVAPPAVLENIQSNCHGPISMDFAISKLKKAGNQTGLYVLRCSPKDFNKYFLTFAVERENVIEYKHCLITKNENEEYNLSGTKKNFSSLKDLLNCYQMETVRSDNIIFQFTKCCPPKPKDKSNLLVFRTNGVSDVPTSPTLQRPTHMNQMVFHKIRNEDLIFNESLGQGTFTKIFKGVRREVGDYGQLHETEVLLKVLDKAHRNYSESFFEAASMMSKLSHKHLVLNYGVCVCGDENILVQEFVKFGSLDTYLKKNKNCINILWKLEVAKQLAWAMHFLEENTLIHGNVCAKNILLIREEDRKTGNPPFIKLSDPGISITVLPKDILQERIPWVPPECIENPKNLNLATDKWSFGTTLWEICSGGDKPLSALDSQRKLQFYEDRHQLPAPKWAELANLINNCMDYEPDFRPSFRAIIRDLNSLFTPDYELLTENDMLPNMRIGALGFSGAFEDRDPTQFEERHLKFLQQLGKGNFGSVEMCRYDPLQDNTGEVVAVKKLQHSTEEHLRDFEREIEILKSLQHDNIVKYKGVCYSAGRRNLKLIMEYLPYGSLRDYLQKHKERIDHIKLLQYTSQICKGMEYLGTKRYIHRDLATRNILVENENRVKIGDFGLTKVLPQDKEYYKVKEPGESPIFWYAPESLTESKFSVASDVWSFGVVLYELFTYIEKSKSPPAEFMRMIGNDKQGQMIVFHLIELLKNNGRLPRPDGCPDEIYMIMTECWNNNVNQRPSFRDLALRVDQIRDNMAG
Tyk2, sequence (P29597 whole entry): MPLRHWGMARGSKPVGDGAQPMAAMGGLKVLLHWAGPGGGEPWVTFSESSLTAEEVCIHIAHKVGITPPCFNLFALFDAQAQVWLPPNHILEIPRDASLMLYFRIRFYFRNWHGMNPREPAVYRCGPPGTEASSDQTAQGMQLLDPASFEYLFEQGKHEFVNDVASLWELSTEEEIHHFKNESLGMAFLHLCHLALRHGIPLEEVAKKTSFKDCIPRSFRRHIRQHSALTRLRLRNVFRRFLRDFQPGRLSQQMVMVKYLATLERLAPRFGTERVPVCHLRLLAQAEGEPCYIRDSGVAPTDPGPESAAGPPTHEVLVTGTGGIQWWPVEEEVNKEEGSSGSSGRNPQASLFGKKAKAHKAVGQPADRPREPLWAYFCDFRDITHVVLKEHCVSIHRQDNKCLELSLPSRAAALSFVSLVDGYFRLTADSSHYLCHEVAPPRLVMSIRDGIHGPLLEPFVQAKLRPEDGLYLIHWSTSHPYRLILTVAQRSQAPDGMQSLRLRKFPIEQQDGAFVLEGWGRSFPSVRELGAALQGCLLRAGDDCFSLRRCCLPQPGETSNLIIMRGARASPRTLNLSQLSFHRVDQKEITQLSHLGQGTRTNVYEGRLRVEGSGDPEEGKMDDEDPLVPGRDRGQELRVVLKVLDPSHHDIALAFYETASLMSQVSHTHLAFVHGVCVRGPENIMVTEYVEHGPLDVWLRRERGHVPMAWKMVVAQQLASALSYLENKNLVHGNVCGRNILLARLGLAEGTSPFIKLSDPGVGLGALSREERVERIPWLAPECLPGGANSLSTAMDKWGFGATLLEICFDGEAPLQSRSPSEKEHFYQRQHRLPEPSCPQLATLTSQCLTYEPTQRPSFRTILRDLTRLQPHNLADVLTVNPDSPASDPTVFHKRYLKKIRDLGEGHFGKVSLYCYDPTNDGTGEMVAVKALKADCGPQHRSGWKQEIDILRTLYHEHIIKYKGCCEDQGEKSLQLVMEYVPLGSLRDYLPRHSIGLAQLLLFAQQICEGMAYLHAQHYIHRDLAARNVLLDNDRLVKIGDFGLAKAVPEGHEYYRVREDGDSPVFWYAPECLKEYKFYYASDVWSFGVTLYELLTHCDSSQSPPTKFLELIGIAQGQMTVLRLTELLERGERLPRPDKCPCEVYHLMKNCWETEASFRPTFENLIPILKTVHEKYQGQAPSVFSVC

Take `CCc1cc(O)ccc1-c1ccc2c(-c3nc4c([nH]3)CN(C(C)C)[C@H](C(=O)N3CC[C@H](N(C)C)C3)C4)n[nH]c2c1` [Example 6, ((S)-3-(dimethylamino)pyrrolidin-1-yl)((S)-2-(6-(2-ethyl-4-hydroxyphenyl)-1H-indazol-3-yl)-5-isopropyl-4,5,6,7-tetrahydro-3H-imidazo[4,5-c]pyridin-6-yl)methan One]: the IC50 in assay [1] (Homo sapiens, PBMC, 48 h) is 158 nM; in assay [2] (setting [3]), 2 nM.

For `CCc1cc(O)ccc1-c1ccc2c(-c3nc4c([nH]3)CN(C(C)C)[C@H](C(=O)N3CC(N(C)C)C3)C4)n[nH]c2c1` [Example 7, (S)-(3-(dimethylamino)azetidin-1-yl)(2-(6-(2-ethyl-4-hydroxyphenyl)-1H-indazol-3-yl)-5-isopropyl-4,5,6,7-tetrahydro-3H-imidazo[4,5-c]pyridin-6-yl)methan One], the “JAK2 pKi” value at JAK2 (converted from pIC50 using Cheng-Prusoff, ATP 3 μM) was 10.5. In addition, the IC50 is 63.1 nM in assay [1] (human PBMC, 3 to 5 donors, TSLP 10 ng/mL, 48 hours, ELISA) and 2.51 nM in assay [2] (IL-2 300 ng/mL, pSTAT5 AlphaLisa, Tall-1 cells, read-out: Tall-1 pIC50 (converted)). Further, at Tyk2, the “Tyk2 pKi” value came out at 9.1.

Consider `CCc1cc(O)ccc1-c1ccc2c(-c3nc4c([nH]3)CN(C)[C@H](C(=O)N3CCN(CCO)C[C@H]3C)C4)n[nH]c2c1` [Example 5, ((S)-2-(6-(2-ethyl-4-hydroxyphenyl)-1H-indazol-3-yl)-5-methyl-4,5,6,7-tetrahydro-3H-imidazo[4,5-c]pyridin-6-yl)((R)-4-(2-hydroxyethyl)-2-methylpiperazin-1-yl)methanone], for which the inhibition constant Ki on JAK2 was 0.0316 nM. Also, the IC50 was 31.6 nM in assay [1] (Homo sapiens, PBMC, 48 h) and 1.58 nM in assay [2] (setting [3]).

By Ki is commonly meant the dissociation constant of the complex between target and ligand, obtained from inhibition or displacement. Low values mean higher affinity, high ones lower affinity.
